Experimental data taken from patent US8129398B2 (priority 2008, dated 2012).

What follows are compounds tested against T1, HIV-integrase (Human immunodeficiency virus type 1 group M subtype B, UniProt P12497) (assay: HIV-Integrase Inhibition Activity (SPA bead integration assay with P33 labeled target DNA)). Settings: recombinant integrase, class symbols; read-out: in vitro activity.
T1 construct: Recombinant integrase (0.26 ng) was incubated with the beads
Format: biochemical
Method in brief: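 Strand integration read as bead-proximity CPM after P33 target DNA (0.1 fmol) and inhibitor were added to washed integrase–substrate DNA complexes on SPA beads. Enzyme bound 90 min at 37° C; EDTA (10 mM final) terminated reaction; IC50 graded A/B/C.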

Compound	IC50
O=C(NC12CCC(CC1)Cn1c2nc(C(=O)NCc2ccc(F)cc2)c(O)c1=O)c1ncccn1 [Example 311, 7,10-Ethanopyrimido[1,2-a]azepine-2-carboxamide, N-[(4-fluorophenyl)methyl]-4,6,7,8,9,10-hexahydro-3-hydroxy-4-oxo-10-[(2-pyrimidinylcarbonyl)amino]-]	< 10 nM
COc1ccccc1CNC(=O)c1nc2n(c(=O)c1O)CC1CCC2(NC(=O)C(=O)N(C)C)CC1 [Example 369]	< 10 nM
CN(C(=O)c1cccnc1)C12CCC(CC1)Cn1c2nc(C(=O)NCc2ccc(F)cc2)c(O)c1=O [Example 322, 7,10-Ethanopyrimido[1,2-a]azepine-2-carboxamide, N-[(4-fluorophenyl)methyl]-4,6,7,8,9,10-hexahydro-3-hydroxy-10-[methyl(3-pyridinylcarbonyl)amino]-4-oxo]	< 10 nM
CN(C)C(=O)C(=O)NC12CCC(CC1)Cn1c2nc(C(=O)NCc2ccc(F)cc2)c(O)c1=O [Example 57, N′-(2-((4-Fluorobenzyl)carbamoyl)-3-hydroxy-4-oxo-6,7,8,9-tetrahydro-7,10-ethanopyrimido[1,2-a]azepin-10(4H)-yl)-N,N-dimethylethanediamide]	< 10 nM
O=C1C[C@@H](C(=O)NC23CCC(CC2)Cn2c3nc(C(=O)NCc3ccc(F)cc3)c(O)c2=O)N1 [Example 264, 7,10-Ethanopyrimido[1,2-a]azepine-2-carboxamide, N-[(4-fluorophenyl)methyl]-4,6,7,8,9,10-hexahydro-3-hydroxy-4-oxo-10-[[[(2S)-4-oxo-2-azetidinyl]carbonyl]amino]-]	< 10 nM
O=C(NC12CCC(CC1)Cn1c2nc(C(=O)NCc2ccc(F)cc2)c(O)c1=O)C(=O)N1CCC(F)CC1 [Example 102, N-(4-Fluorobenzyl)-10-(((4-fluoro-1-piperidinyl)(oxo)acetyl)amino)-3-hydroxy-4-oxo-4,6,7,8,9,10-hexahydro-7,10-ethanopyrimido[1,2-a]azepine-2-carboxamide]	< 10 nM
Cn1cccc1C(=O)C(=O)NC12CCC(CC1)Cn1c2nc(C(=O)NCc2ccc(F)cc2)c(O)c1=O [Example 45, N-(4-Fluorobenzyl)-3-hydroxy-10-(((1-methyl-1H-pyrrol-2-yl) (oxo)acetyl)amino)-4-oxo-4,6,7,8,9,10-hexahydro-7,10-ethanopyrimido[1,2-a]azepine-2-carboxamide]	< 10 nM
CC(=O)N[C@H]1CCN(C(=O)C(=O)NC23CCC(CC2)Cn2c3nc(C(=O)NCc3ccc(F)cc3)c(O)c2=O)C1 [Example 68, 10-((((3S)-3-(Acetylamino)-1-pyrrolidinyl) (oxo)acetyl)amino)-N-(4-fluorobenzyl)-3-hydroxy-4-oxo-4,6,7,8,9,10-hexahydro-7,10-ethanopyrimido[1,2-a]azepine-2-carboxamide]	< 10 nM
O=C(NCc1ccc(F)cc1)c1nc2n(c(=O)c1O)CC1CCC2(NC(=O)C2CCCN2S(=O)(=O)C2CCCC2)CC1 (stereo not drawn) [Example 408]	< 10 nM
CN(C)C(=O)C(=O)NC12CCC(CC1)Cn1c2nc(C(=O)NCc2ncc(F)cc2F)c(O)c1=O [Example 123, N′-(2-(((3,5-Difluoro-2-pyridinyl)methyl)carbamoyl)-3-hydroxy-4-oxo-6,7,8,9-tetrahydro-7,10-ethanopyrimido[1,2-a]azepin-10(4H)-yl)-N,N-dimethylethanediamide]	10 to 100 nM
Cc1cc(CNC(=O)c2nc3n(c(=O)c2O)CC2CCC3(N(C)C(=O)C(=O)N(C)Cc3cnn(C)c3C)CC2)ccc1F [Example 172, N-((1,5-Dimethyl-1H-pyrazol-4-yl)methyl)-N′-(2-((4-fluoro-3-methylbenzyl)carbamoyl)-3-hydroxy-4-oxo-6,7,8,9-tetrahydro-7,10-ethanopyrimido[1,2-a]azepin-10(4H)-yl)-N,N′-dimethylethanediamide]	< 10 nM
CN(C)C(=O)[C@@H]1CCCN1C(=O)C(=O)NC12CCC(CC1)Cn1c2nc(C(=O)NCc2ccc(F)cc2)c(O)c1=O [Example 91, 10-((((2S)-2-(Dimethylcarbamoyl)-1-pyrrolidinyl) (oxo)acetyl)amino)-N-(4-fluorobenzyl)-3-hydroxy-4-oxo-4,6,7,8,9,10-hexahydro-7,11-ethanopyrimido[1,2-a]azepine-2-carboxamide]	< 10 nM
NC12CCC(Cn3c1nc(C(=O)NCc1ccc(F)cc1)c(O)c3=O)OC2 (stereo not drawn) [Example 220, 10-Amino-N-(4-fluorobenzyl)-3-hydroxy-4-oxo-4,6,7,8,9,10-hexahydro-7,10-(epoxymethano)pyrimido[1,2-a]azepine-2-carboxamide]	10 to 100 nM
COCC(=O)N1CCN(C(=O)C(=O)NC23CCC(CC2)Cn2c3nc(C(=O)NCc3ccc(F)cc3)c(O)c2=O)CC1 [Example 141, N-(4-Fluorobenzyl)-3-hydroxy-10-(((4-(methoxyacetyl)-1-piperazinyl)(oxo)acetyl)amino)-4-oxo-4,6,7,8,9,10-hexahydro-7,10-ethanopyrimido[1,2-a]azepine-2-carboxamide]	< 10 nM
Cc1c(CN(C)C(=O)C(=O)N(C)C23CCC(CC2)Cn2c3nc(C(=O)NCc3ccc(F)cc3)c(O)c2=O)cnn1C [Example 171, N-((1,5-Dimethyl-1H-pyrazol-4-yl)methyl)-N′-(2-((4-fluorobenzyl)carbamoyl)-3-hydroxy-4-oxo-6,7,8,9-tetrahydro-7,10-ethanopyrimido[1,2-a]azepin-10(4H)-yl)-N,N′-dimethylethanediamide]	< 10 nM
CN(C)C(=O)C(=O)NC12CCC(CC1)Cn1c2nc(C(=O)NCCC2CCCN2C)c(O)c1=O (stereo not drawn) [Example 336]	> 100 nM
Cc1cc(C(=O)N2CCN(C(=O)C(=O)NC34CCC(CC3)Cn3c4nc(C(=O)NCc4ccc(F)cc4)c(O)c3=O)CC2)no1 [Example 139, N-(4-Fluorobenzyl)-3-hydroxy-10-(((4-((5-methyl-3-isoxazolyl)carbonyl)-1-piperazinyl)(oxo)acetyl)amino)-4-oxo-4,6,7,8,9,10-hexahydro-7,10-ethanopyrimido[1,2-a]azepine-2-carboxamide]	< 10 nM
CN(C)C(=O)C(=O)OCCNC12CCC(CC1)Cn1c2nc(C(=O)NCc2ccc(F)cc2)c(O)c1=O [Example 176]	10 to 100 nM
Cc1cc(C(=O)NC23CCC(CC2)Cn2c3nc(C(=O)NCc3ccc(F)cc3)c(O)c2=O)nn1C [Example 24, 10-(((1,5-Dimethyl-1H-pyrazol-3-yl)carbonyl)amino)-N-(4-fluorobenzyl)-3-hydroxy-4-oxo-4,6,7,8,9,10-hexahydro-7,10-ethanopyrimido[1,2-a]azepine-2-carboxamide]	< 10 nM
CN(C)C(=O)C(=O)NC12CCC(Cn3c1nc(C(=O)NCc1ccc(F)cc1)c(O)c3=O)C2 (single isomer, unassigned) [Example 411, Ethanediamide, N′-[2-[[[(4-fluorophenyl)methyl]amino]carbonyl]-6,7,8,9-tetrahydro-3-hydroxy-4-oxo-7,11-methanopyrimido[1,2-a]azepin-10(4H)-yl]-N,N-dimethyl-]	< 10 nM
CN(C(=O)OCc1ccccc1)C1c2nc(C(=O)NCc3ccc(F)cc3)c(O)c(=O)n2CC2CCC1C2 (stereo not drawn) [Example 8]	< 10 nM
CN(C)C(=O)C(=O)NC12COC(CCn3c1nc(C(=O)NCc1ccc(F)cc1)c(O)c3=O)C2 (stereo not drawn) [Example 218, N′-(2-((4-Fluorobenzyl)carbamoyl)-3-hydroxy-4-oxo-7,8-dihydro-4 H,6H-8,11-methanopyrimido[2,1-d][1,5]oxazocin-11(10H)-yl)-N,N-dimethylethanediamide]	< 10 nM
Cc1cc(CNC(=O)c2nc3n(c(=O)c2O)CC2CCC3(NC(=O)C(=O)N(C)C)C2)ccc1F (stereo not drawn) [Example 196, Ethanediamide, N′-[2-[[[(4-fluoro-3-methylphenyl)methyl]amino]carbonyl]-6,7,8,9-tetrahydro-3-hydroxy-4-oxo-7,10-methanopyrimido[1,2-a]azepin-10(4H)-yl]-N,N-dimethyl-]	< 10 nM
CN(C)C(=O)C(=O)NC12CCC(CCn3c1nc(C(=O)NCc1ccc(F)cc1)c(O)c3=O)C2 (stereo not drawn) [Example 199, Ethanediamide, N′-[2-[[[(4-fluorophenyl)methyl]amino]carbonyl]-7,8,9,10-tetrahydro-3-hydroxy-4-oxo-8,11-methano-4H-pyrimido[1,2-a]azocin-11(6H)-yl]-N,N-dimethyl-]	< 10 nM
Cc1cc(CNC(=O)c2nc3n(c(=O)c2O)CC2CCC3(NC(=O)C(=O)N(C)C)CC2)nn1C(C)(C)C [Example 236, Ethanediamide, N′-[2-[[[[1-(1,1-dimethylethyl)-5-methyl-1H-pyrazol-3-yl]methyl]amino]carbonyl]-6,7,8,9-tetrahydro-3-hydroxy-4-oxo-7,10-ethanopyrimido[1,2-a]azepin-10(4H)-yl]-N,N-dimethyl-]	10 to 100 nM
CN(C)C(=O)C(=O)NC12CCC(CC1)Cn1c2nc(C(=O)NCc2ccc(F)cc2C(F)(F)F)c(O)c1=O [Example 121, N′-(2-((4-Fluoro-2-(trifluoromethyl)benzyl)carbamoyl)-3-hydroxy-4-oxo-6,7,8,9-tetrahydro-7,10-ethanopyrimido[1,2-a]azepin-10(4H)-yl)-N,N-dimethylethanediamide]	< 10 nM
O=C(NC12CCC(CC1)Cn1c2nc(C(=O)NCc2ccc(F)cc2)c(O)c1=O)OCc1ccccc1 [Example 18, Benzyl (2-((4-fluorobenzyl)carbamoyl)-3-hydroxy-4-oxo-6,7,8,9-tetrahydro-7,10-ethanopyrimido[1,2-a]azepin-10(4H)-yl)carbamate]	< 10 nM
O=C(NC12CCC(CCn3c1nc(C(=O)NCc1ccc(F)cc1)c(O)c3=O)C2)C(=O)N1CC[C@H](F)C1 (stereo partly drawn) [Example 207, 8,11-Methano-4H-pyrimido[1,2-a]azocine-2-carboxamide, N-[(4-fluorophenyl)methyl]-11-[[2-[(3S)-3-fluoro-1-pyrrolidinyl]-1,2-dioxoethyl]amino]-6,7,8,9,10,11-hexahydro-3-hydroxy-4-oxo-]	< 10 nM
COc1cccc(CNC(=O)c2nc3n(c(=O)c2O)CC2CCC3(NC(=O)C(=O)N(C)C)CC2)c1 [Example 373]	< 10 nM
CN(C)C(=O)C(=O)NC12CCC(CC1)Cn1c2nc(C(=O)NCCNc2ccccc2)c(O)c1=O [Example 342]	10 to 100 nM
